US7884127B2, “Inhibitors of cyclin dependent kinases and their use” (Pirimal Life Sciences Ltd., priority 2002, dated 2011)

For Cc1cc(C#N)ccc1-c1cc(=O)c2c(O)cc(O)c([C@@H]3CCN(C)[C@H]3CO)c2o1 [Example 60, (+)-trans-4-[5,7-Dihydroxy-8-(2-hydroxymethyl-1-methyl-pyrrolidin-3-yl)-4-oxo-4H-chromen-2-yl]-3-methyl-benzonitrile], which melting point is on record?
Its melting point is 145 to 147 °C.

With CN1CC[C@@H](c2c(O)cc(O)c3c(=O)cc(-c4ccc(C(F)(F)F)cc4)oc23)[C@@H]1CO [Example 65, (+)-trans-5,7-Dihydroxy-8-(2-hydroxymethyl-1-methyl-pyrrolidin-3-yl)-2-(4-trifluoromethyl-phenyl)-chromen-4-one] as the compound, how does the melting point read?
Its melting point is 235 to 237 °C.

For CN1CC[C@@H](c2c(O)cc(O)c3c(=O)cc(-c4cccs4)oc23)[C@@H]1CO [Example 68, (+)-trans-5,7-Dihydroxy-8-(2-hydroxymethyl-1-methyl-pyrrolidin-3-yl)-2-thiophen-2-yl-chromen-4-one], which melting point is on record?
The melting point was 218 to 220 °C.

Which melting point does the source give for CN1CC[C@@H](c2c(O)cc(O)c3c(=O)cc(-c4cccc(F)c4)oc23)[C@@H]1CO [Example 76, (+)-trans-2-(3-Fluoro-phenyl)-5,7-dihydroxy-8-(2-hydroxymethyl-1-methyl-pyrrolidin-3-yl)-chromen-4-one] here?
Its melting point is 218 to 220 °C.

Which melting point does the source give for CN1CC[C@@H](c2c(O)cc(O)c3c(=O)cc(-c4cccnc4Cl)oc23)[C@@H]1CO [Example 90, (+)-trans-2-(2-Chloro-pyridin-3-yl)-5,7-dihydroxy-8-(2-hydroxymethyl-1-methyl-pyrrolidin-3-yl)-chromen-4-one] here?
Its melting point is 125 to 127 °C.

Which melting point does the source give for CN1CC[C@@H](c2c(O)cc(O)c3c(=O)cc(-c4ccc([N+](=O)[O-])cc4)oc23)[C@@H]1CO [Example 92, (+)-trans-5,7-Dihydroxy-8-(2-hydroxymethyl-1-methyl-pyrrolidin-3-yl)-2-(4-nitro-phenyl)-chromen-4-one] here?
The melting point was 275 to 277 °C.

Which melting point does the source give for CN1CC[C@@H](c2c(O)cc(O)c3c(=O)cc(-c4ccc(N)cc4)oc23)[C@@H]1CO [Example 94, (+)-trans-2-(4-Amino-phenyl)-5,7-dihydroxy-8-(2-hydroxymethyl-1-methyl-pyrrolidin-3-yl)-chromen-4-one] here?
Its melting point is 172 to 174 °C.

Which melting point does the source give for CN1CC[C@@H](c2c(O)cc(O)c3c(=O)cc(-c4ccc(C#N)cc4Cl)oc23)[C@@H]1CO [Example 98, (+)-trans-3-Chloro-4-[5,7-dihydroxy-8-(2-hydroxymethyl-1-methyl-pyrrolidin-3-yl)-4-oxo-4H-chromen-2-yl]-benzonitrile] here?
Its melting point is 237 to 239 °C.

Which melting point does the source give for CN1CC[C@@H](c2c(O)cc(O)c3c(=O)cc(-c4ccc(Br)cc4Cl)oc23)[C@@H]1CO [Example 100, (+)-trans-2-(4-Bromo-2-chloro-phenyl)-5,7-dihydroxy-8-(2-hydroxymethyl-1-methyl-pyrrolidin-3-yl)-chromen-4-one] here?
Its melting point is 155 to 156 °C.

Which melting point does the source give for CN1CC[C@@H](c2c(O)cc(O)c3c(=O)cc(-c4cccc(F)c4Cl)oc23)[C@@H]1CO [Example 134, (+)-trans-2-(2-Chloro-3-fluoro-phenyl)-5,7-dihydroxy-8-(2-hydroxymethyl-1-methyl-pyrrolidin-3-yl)-chromen-4-one] here?
Its melting point is 221 to 223 °C.

Which melting point does the source give for CN1CC[C@@H](c2c(O)cc(O)c3c(=O)cc(-c4cccc(F)c4Br)oc23)[C@@H]1CO [Example 136, (+)-trans-2-(2-Bromo-3-fluoro-phenyl)-5,7-dihydroxy-8-(2-hydroxymethyl-1-methyl-pyrrolidin-3-yl)-chromen-4-one] here?
Its melting point is 237 to 239 °C.

With CN1CC[C@@H](c2c(O)cc(O)c3c(=O)cc(-c4cc(Cl)ccc4Br)oc23)[C@@H]1CO [Example 140, (+)-trans-2-(2-Bromo-5-chloro-phenyl)-5,7-dihydroxy-8-(2-hydroxymethyl-1-methyl-pyrrolidin-3-yl)-chromen-4-one] as the compound, how does the melting point read?
Its melting point is 233 to 235 °C.
